Source: PubChem BioAssay (NCI)
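Growth conditions: 96-well plates. Treatment: test compound, 48 hours, 5 concentrations. Analysis: linear interpolation between bracketing concentrations; unreached endpoints set to highest concentration. TGI denotes the concentration required for complete inhibition of growth.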

What was measured:
Assay in all cases: growth of human tumour cells (NCI), 48 h
HCT-116 colon = system: HCT-116 colon
SN12C renal = system: SN12C renal
UACC-62 melanoma = system: UACC-62 melanoma
LOX IMVI melanoma = system: LOX IMVI melanoma
M14 melanoma = system: M14 melanoma
HT29 colon = system: HT29 colon
NCI-H23 lung = system: NCI-H23 lung
MDA-MB-231 breast = system: MDA-MB-231 breast
SK-MEL-2 melanoma = system: SK-MEL-2 melanoma
HCC-2998 colon = system: HCC-2998 colon
A549 NSCLC = system: A549 NSCLC
CAKI-1 renal = system: CAKI-1 renal
HS 578T breast = system: HS 578T breast
SR leukemia = system: SR leukemia
OVCAR-5 ovarian = system: OVCAR-5 ovarian
HCT-15 colon = system: HCT-15 colon
MOLT-4 leukemia = system: MOLT-4 leukemia
PC-3 prostate = system: PC-3 prostate
IGROV1 ovarian = system: IGROV1 ovarian
SW-620 colon = system: SW-620 colon
BT-549 breast = system: BT-549 breast
UO-31 renal = system: UO-31 renal
CCRF-CEM leukemia = system: CCRF-CEM leukemia
U251 CNS = system: U251 CNS
NCI/ADR-RES ovarian = system: NCI/ADR-RES ovarian
SF-295 CNS = system: SF-295 CNS
SK-MEL-5 melanoma = system: SK-MEL-5 melanoma
NCI-H226 lung = system: NCI-H226 lung
OVCAR-4 ovarian = system: OVCAR-4 ovarian
SNB-75 CNS = system: SNB-75 CNS
SK-MEL-28 melanoma = system: SK-MEL-28 melanoma
OVCAR-8 ovarian = system: OVCAR-8 ovarian
HOP-62 NSCLC = system: HOP-62 NSCLC
SF-539 CNS = system: SF-539 CNS
ACHN renal = system: ACHN renal
KM12 colon = system: KM12 colon
NCI-H460 lung = system: NCI-H460 lung
MDA-MB-435 = system: MDA-MB-435
RPMI-8226 leukemia = system: RPMI-8226 leukemia
OVCAR-3 ovarian = system: OVCAR-3 ovarian
MDA-N = system: MDA-N
MALME-3M melanoma = system: MALME-3M melanoma
SNB-19 CNS = system: SNB-19 CNS
SF-268 CNS = system: SF-268 CNS
EKVX NSCLC = system: EKVX NSCLC
K-562 leukemia = system: K-562 leukemia
786-0 renal = system: 786-0 renal
NCI-H522 lung = system: NCI-H522 lung
UACC-257 melanoma = system: UACC-257 melanoma
TK-10 renal = system: TK-10 renal
SK-OV-3 ovarian = system: SK-OV-3 ovarian
HL-60(TB) leukemia = system: HL-60(TB) leukemia
HOP-92 NSCLC = system: HOP-92 NSCLC
COLO 205 colon = system: COLO 205 colon
DU-145 prostate = system: DU-145 prostate
MCF7 breast = system: MCF7 breast
RXF 393 renal = system: RXF 393 renal
A498 renal = system: A498 renal

Measured: TGI

Cc1cc(C)c(C2CC(O)C(CO)O2)cc1C (stereo unspecified)
not listed: HL-60(TB) leukemia | HOP-92 NSCLC | COLO 205 colon | DU-145 prostate | MCF7 breast | RXF 393 renal | A498 renal
> 100 µM: all other assays above

c1ccc2c(c1)c(N1CCCCC1)cc1nc3c(cc(N4CCCCC4)c4ccccc43)nc12
not listed: HS 578T breast | SF-268 CNS | TK-10 renal
> 100 µM: all other assays above

COc1ccc(N=Nc2c(O)ccc3ccccc23)cc1
29.1 µM: OVCAR-8 ovarian
23.2 µM: HS 578T breast
34.8 µM: EKVX NSCLC
38 µM: HT29 colon
39.5 µM: A549 NSCLC
30.1 µM: SF-295 CNS
30.6 µM: U251 CNS
47.6 µM: NCI-H226 lung
57.7 µM: ACHN renal
34 µM: TK-10 renal
26.7 µM: HOP-62 NSCLC
96.5 µM: MDA-MB-231 breast
56.1 µM: BT-549 breast
28.1 µM: SK-OV-3 ovarian
60.9 µM: NCI-H522 lung
60.6 µM: OVCAR-5 ovarian
85.2 µM: NCI-H23 lung
32.3 µM: OVCAR-4 ovarian
36.3 µM: UACC-62 melanoma
32.9 µM: MALME-3M melanoma
24.2 µM: IGROV1 ovarian
41.7 µM: SR leukemia
37.7 µM: SNB-75 CNS | SF-268 CNS
47.7 µM: HOP-92 NSCLC
24.9 µM: KM12 colon
not listed: HCC-2998 colon | SK-MEL-5 melanoma | SF-539 CNS | NCI-H460 lung | RPMI-8226 leukemia | SNB-19 CNS | K-562 leukemia | DU-145 prostate | MCF7 breast | A498 renal
> 100 µM: all other assays above

Cc1ccc2nc(-n3c(/C=C/c4ccccc4O)nc4ccccc4c3=O)sc2c1
not listed: SN12C renal | SR leukemia | SF-539 CNS | MALME-3M melanoma | SF-268 CNS
> 100 µM: all other assays above

O=C1C(=C/C=C2/SC(c3ccccc3)(c3ccccc3)c3ccccc32)C(=O)c2ccccc21
not listed: SK-MEL-2 melanoma | SR leukemia | CCRF-CEM leukemia | HL-60(TB) leukemia
> 100 µM: all other assays above
